Results: ChEMBL document CHEMBL3046516, “Efficacy of neem limonoids on Cnaphalocrocis medinalis (Guenee) (Lepidoptera: Pyralidae) the rice leaffolder” (2005)

Assays:
[1] = system: Cnaphalocrocis medinalis; assay: Antifeedant activity against 4 hr starved fifth-instar larval stage of Cnaphalocrocis medinalis infested compound-treated rice leaves assessed as approximate digestibility at 1 ppm measured every 24 hr for 4 days by gravimetric method (reference value: 44.81 +/- 4.12%); type: functional
[2] = system: Cnaphalocrocis medinalis; assay: Antifeedant activity against 4 hr starved fifth-instar larval stage of Cnaphalocrocis medinalis infested compound-treated rice leaves assessed as consumption index at 1 ppm measured every 24 hr for 4 days by gravimetric method (reference value: 2.52 +/- 0.15 mg/mg/day); type: functional
[3] = system: Cnaphalocrocis medinalis; assay: Antifeedant activity against 4 hr starved fifth-instar larval stage of Cnaphalocrocis medinalis infested compound-treated rice leaves assessed as feeding deterrence index at 2 ppm after 12 hr by leaf cut-choice assay (reference value: 0.05 +/- 0.003%); type: functional
[4] = system: Cnaphalocrocis medinalis; assay: Antifeedant activity against 4 hr starved fifth-instar larval stage of Cnaphalocrocis medinalis infested compound-treated rice leaves assessed as relative consumption rate at 1 ppm measured every 24 hr for 4 days by gravimetric method (reference value: 0.524 +/- 0.03 mg/mg/day); type: functional
[5] = system: Cnaphalocrocis medinalis; assay: Antifeedant activity against 4 hr starved fifth-instar larval stage of Cnaphalocrocis medinalis infested compound-treated rice leaves assessed as reduction in diet consumption after 12 hr by leaf cut-choice assay; type: functional, organism-based
[6] = system: Cnaphalocrocis medinalis; assay: Antifeedant activity against 4 hr starved fifth-instar larval stage of Cnaphalocrocis medinalis infested compound-treated rice leaves assessed as efficacy of conversion of digested food at 1 ppm measured every 24 hr for 4 days by gravimetric method (reference value: 46.45 +/- 4.12%); type: functional
[7] = system: Cnaphalocrocis medinalis; assay: Antifeedant activity against 4 hr starved fifth-instar larval stage of Cnaphalocrocis medinalis infested compound-treated rice leaves assessed as relative growth rate at 1 ppm measured every 24 hr for 4 days by gravimetric method (reference value: 0.524 +/- 0.03 mg/mg/day); type: functional
[8] = system: Cnaphalocrocis medinalis; assay: Antifeedant activity against 4 hr starved fifth-instar larval stage of Cnaphalocrocis medinalis infested compound-treated rice leaves assessed as efficacy of conversion of ingested food at 1 ppm measured every 24 hr for 4 days by gravimetric method (reference value: 20.81 +/- 1.58%); type: functional

SMILES | Activity [1] [%] | Activity [2] [mg/mg/day] | FDI [3] [%] | Activity [4] [mg/mg/day] | Activity [5] | Activity [6] [%] | Activity [7] [mg/mg/day] | ECI [8] [%]
CC(=O)O[C@@H]1C[C@H]2C(C)(C)C(=O)C=C[C@]2(C)[C@H]2CC[C@]3(C)C(=CC(=O)[C@@]3(O)c3ccoc3)[C@@]21C [17-HYDROXYAZADIRADIONE] | 47.217 | 2.307 | 23.6 | 0.957 | Dose-dependent effect | 38.657 | 0.4197 | 18.247
C/C=C(\C)C(=O)O[C@H]1C[C@@H](OC(C)=O)[C@@]2(C(=O)OC)CO[C@H]3[C@@H](O)[C@@](C)([C@]45O[C@@]4(C)[C@@H]4C[C@H]5O[C@@H]5OC=C[C@@]54O)[C@H]4[C@]1(CO[C@]4(O)C(=O)OC)[C@@H]32 [AZADIRACHTIN A] | 52.717 | 0.427 | 93.2 | 0.187 | Dose-dependent effect | 12.357 | 0.0277 | 6.507
CC1(C)C(=O)C=C[C@]2(C)[C@H]3CC[C@@]4(C)[C@H](c5ccoc5)OC(=O)[C@H]5O[C@]54[C@]3(C)[C@H](O)C[C@@H]12 [DEACETYLGEDUNIN] | 48.457 | 2.207 | 23.6 | 0.927 | Dose-dependent effect | 36.127 | 0.3857 | 17.507
COC(=O)C[C@H]1[C@]2(C)C3=C(C)[C@H](c4ccoc4)C[C@H]3O[C@@H]2[C@H](O)[C@@H]2[C@]1(C)C(=O)C=C[C@@]2(C)C(=O)OC [DEACETYLNIMBIN] | 46.747 | 2.327 | 21 | 0.957 | Dose-dependent effect | 39.117 | 0.4247 | 18.287
CC(=O)O[C@@H]1C[C@H]2C(C)(C)C(=O)C=C[C@]2(C)[C@H]2CC[C@@]3(C)[C@H](c4ccoc4)OC(=O)[C@H]4O[C@]43[C@@]21C [GEDUNIN] | 46.457 | 2.357 | 18.8 | 1.007 | Dose-dependent effect | 43.157 | 0.4707 | 20.07
C/C=C(/C)C(=O)O[C@H]1C[C@@H](OC(C)=O)[C@@]2(C)CO[C@H]3[C@H]4O[C@@H]5C[C@@H](c6ccoc6)C(C)=C5[C@@]4(C)[C@H](CC(=O)OC)[C@]1(C)[C@@H]32 [SALANNIN] | 49.617 | 1.557 | 49.6 | 0.557 | Dose-dependent effect | 33.527 | 0.2577 | 16.627
